Data on 3 compounds can be found in US8809368B2, “Compounds affecting gap junction activity” (Kansas State University Research Foundation, priority 2006, dated 2014).

Each structure is given as a SMILES string. In brackets after ≈: the same amount, converted by molar mass.

The subject of test [1] is Trypanosoma brucei. Briefly: Anti-trypanosomal activity, inhibition of T. brucei growth (ATP-bioluminescence luciferase assay). The format is cell-based. The note with it: read-out: IC50 against Trypanosoma brucei. As for the experimental part: The antiparasitic activities of exemplary compounds described here was studied using the anti-trypanosomal activity protocol described in: Rapp M, et al. J Med Chem 2006; 49:2096-102. […] FIG. 1 summarizes the compound inhibition of T. brucei growth. It is seen that compounds of the invention are useful in inhibiting T. brucei growth.
Culturing of Parasites. The bloodstream form of Trypanosoma brucei 427 strain was maintained under the standard cell culture conditions (37° C., 5% CO2). The parasites were grown in complete HMI-9 medium containing 10% FBS, 10% Serum Plus and 1× Penicillin/Streptomycin. (Angew. Chem. Int. Ed. Engl. 2003, 42, 5274-5293).
Luciferase Assay. Luciferase assay was used to measure ATP-bioluminescence in T. brucei cultured in 96-well plates at 37° C. for 48 hours. Parasites were diluted to 1.0×10^5 cells/mL in complete HMI-9 medium. One hundred microliters (100 μL) of the diluted parasites were aliquoted into sterile 96-well flat white opaque culture plates (Greiner). Each compound was serially diluted from 10 μM to 0.1 μM in DMSO and then mixed in the appropriate wells containing parasites. The treated parasites were then incubated for 48 hours at 37° C. with 5% CO2 before monitoring viability. To measure the viability of the parasites after treatment with each compound, the parasites were lysed in the wells by adding 100 μL of CellTiter-Glo™ (Promega). After lysis, the ATP bioluminescence of the 96-well plates was measured with a SpectraFluor Plus multidetection plate reader (Tecan).

Test [2] concerns MDA-MB-453 human breast cancer cells. Put plainly: Soft agar colony growth, MDA-MB-453 cells. The format is cell-based. The conditions noted are these: Table 2. As for the experimental part:
(§1) FIG. 3(A) MDA-MB-453 and (B) T47D human breast cancer cells were treated with 10 μM of various quinolines for 7 days. Base agar plates were prepared containing 0.8% agar and 0.4% agar in Ham's F12. Cells (5×10^4 cells/33 mm well) were suspended in 100 μl of Ham's F12 with 0.4% agar and plated. These plates were maintained at 37° C. for 7 days and examined for the presence of colonies. Individual colonies of 40 μm or greater were examined. […] However, PQ3 caused a 2.3-fold increase in colony growth in MDA-MB-453 cells and PQ2 caused a 2.6-fold increase in T47D colony growth compared to DMSO. FIGS. 7 and 8 show MDA-MB-453 and T47D colony growth for various concentrations of PQ1 and SA tested for 7 days. The procedures are generally as described above. The cell colony growth decreased using 10 and 100 nM PQ1 for both cell types. Colony Growth Assay: T47D human breast cancer cells were treated with PQ1. Base agar plates were prepared containing 0.8% agar and 0.4% agar in Ham's F12. Cells (5×10^4 cells/33 mm2 well) were suspended in 100 μl of Ham's F12 with 0.4% agar and plated. These plates were maintained at 37° C. for 7 days and examined for the presence of colonies. Individual colonies of 40 um or greater were examined.

For test [3], the system named is SW620 colon cancer cells. Briefly: Gap junction activity, SW620 colon cancer cells. The class given is cell-based. On the procedure: However, PQ3 has an opposite effect on mammary cancer cell lines. […] A summary of PQ-mediated GJIC activity and colony growth in breast and colon cancer cells is presented in Tables 1, 2, and 3, as well as FIGS. 10-13. In FIG. 10, SW620 cells were dosed for 24 hours with PQ1 at 100, 200, 300, and 500 nM. The gap junction activity was measured as a percent of control, as previously described. It was seen that all concentrations on PQ1 increased the gap junction activity in SW620 colon cancer cells as compared to the control. In FIG. 11, the effect of PQ1 on the expression of PKCγ was studied at concentrations of 100, 200, 300 and 500 nM PQ1 for 24 hours. It is seen in FIG. 11 that PQ1 has no effect on the expression of PKCγ at the levels tested. In FIGS. 12 and 13, the effect of PQ1 on the colony growth of SW620 colon cancer cells was measured with 1-100 nM PQ1 (FIG. 12) and 10 uM PQ1 (FIG. 13).

Test [4] deals with T47D human breast cancer cells. Put plainly: Soft agar colony growth, T47D cells. The class given is cell-based. The note with it: for effect on breast cancer cell colony growth: Table 2. As for the experimental part:
Base agar plates were prepared containing 0.8% agar and 0.4% agar in Ham's F12. Cells (5×10^4 cells/33 mm^2 well) were suspended in 100 μl of Ham's F12 with 0.4% agar and plated. These plates were maintained at 37° C. for 7 days and examined for the presence of colonies. Individual colonies of 50 μm or greater were examined. T47D cells were treated with 1, 10 and 100 nM PQ1 and SA (succinic acid) as a solvent control. Individual colonies of 50 μm or greater were examined. Statistical significance, *p<0.05, of at least three experiments
as §1, with “types.” for “types. Colony Growth Assay: T47D human breast cancer cells were treated with PQ1. Base agar plates were prepared containing 0.8% agar and 0.4% agar in Ham's F12. Cells (5×10^4 cells/33 mm2 well) were suspended in 100 μl of Ham's F12 with 0.4% agar and plated. These plates were maintained at 37° C. for 7 days and examined for the presence of colonies. Individual colonies of 40 um or greater were examined.”
Colony Growth Assay: T47D human breast cancer cells were treated with PQ1. Base agar plates were prepared containing 0.8% agar and 0.4% agar in Ham's F12. Cells (5×10^4 cells/33 mm2 well) were suspended in 100 μl of Ham's F12 with 0.4% agar and plated. These plates were maintained at 37° C. for 7 days and examined for the presence of colonies. Individual colonies of 40 um or greater were examined.
Various oncogenes (e.g. ras, raf, neu, src, mos) down-regulate GJIC while several tumor suppressor genes can up-regulate GJIC. […] Cells were grown in soft agar to assess their capacity for anchorage-independent growth, which is a key feature of cell transformation due to the importance of cell-cell and cell-matrix based tumor suppression. MEC and T47D cells were treated with 10, 100, 1000, and 10000 nM PQ1 for 7 days. A graphical presentation of three experiment results is presented in log scale of PQ1 concentration. […] A 100 nM PQ1 inhibits 66% of colony growth compared to controls, without PQ1 treatment or 100 nM succinic acid.
Colony Growth Using Soft Agar. Cells were treated with 0, 10, 100, 200 and 500 nM PQ1 for 7 days. Base agar plates were prepared containing 0.8% agar and 0.4% agar in Ham's F12. Cells (5×10^4 cells/33 mm^2 well) were suspended in 100 μl of Ham's F12 with 0.4% agar and plated. These plates were maintained at 37° C. for 7 days and examined for the presence of colonies. Individual colonies of 50 μm or greater were examined.

Test [5] concerns ZR75. Put plainly: Gap junction intercellular communication, ZR75 cells. The format is cell-based, human. The conditions noted are these: Table 1.
The test system of test [6] is MCF-7. Briefly: Gap junction intercellular communication, MCF-7 cells. The format is cell-based, human. The conditions noted are these: Table 1.
Test [7] has as its system HT29. Put plainly: Gap junction intercellular communication, HT29 colon cancer cells. The class given is cell-based. The conditions noted are these: Table 3.
The test system of test [8] is MDA-MB-453 cells. Briefly: Gap junction activity (GJIC), flow cytometry of dye coupling, MDA-MB-453 cells. The conditions noted are these: MDA-MB-453; for effect on gap junction intercellular communication: Table 1, concentration not given. The format is cell-based, human. As for the experimental part:
FIG. 4(A) MDA-MB-453 and (B) T47D cells were treated with low (500 nM) and high (10 μM) concentrations of PQs for 24 hours. Monolayers of acceptor cell population were grown on 25-cm flasks in the presence of Vibrant DiD. Vybrant DiD in acceptor cells is not able to pass through the gap junctions because of its hydrophobic property. Single cell suspensions of donor treated cells were prepared, labeled with 0.05 μg/ml calcein-AM, incubated at 37 C for 5 minutes. Quantification of dye coupling between the donor and acceptor cells was assessed by dual-excitation flow cytometry. […] Cells treated with 10 μM PQ3 have approximately 40-50% decrease in gap junction activity compared control or DMSO.
For orientation: A flow cytometer gives signals particle by particle.

Test [9] has as its system MDA-MB-231. Briefly: Gap junction intercellular communication, MDA-MB-231 cells. The format is cell-based, human. The note with it: Table 1.
Test [10] has as its system R28 cells. Briefly: Dye transfer/scrape loading gap junction assay in R28 cells. The format is cell-based, rat. The note with it: 10 μM for 40 minutes, compared to untreated control cells. As for the experimental part: To determine the effects of the compounds of the invention on gap junctions, […] R28 cells and lucifer yellow dye and rhodamine dextran were used to study gap junction. (Das, S.; Lauer, J.; Barnett, M.; Lin, D.; Akoev, V.; Battina, S.; Hua, D. H.; Takemoto, D. J. PKCγ phosphorylates connexin50 on serine-430. A presentation at 2006 ARVO Annual Meeting, Apr. 30-May 4, 2006, Fort Lauderdale, Fla.). […] The cells were treated with different compounds as shown @ 10 μM for 40 minutes. A mixture of lucifer yellow (LY) and rhodamine dextran (RD) was added to the cells at the center of the coverslip. Two cuts across the coverslip were made to form a transient tear in the plasma membranes of the cells to permit dye transfer through gap junctions. Cells were incubated with the dye for 20 minutes, then fixed and examined by fluorescent microscopy. For quantitative analysis the extent of dye transfer was estimated by counting the number of LY and RD labeled cells in the microscopic field and graphed. […] PQ3 is useful as a drug having reduced gap junction inhibitory activity. The gap junction activity of other compounds of the invention may be tested as described herein without the use of undue experimentation.
Gap junction activity assay. R28 cells were grown to 90% confluency on coverslips. They were treated with PQ1 at 10 μM for 40 min. A mixture of 1% each, in PBS, Lucifer yellow (LY) and Rhodamine Dextran (RD) (Molecular Probes, Eugene, Oreg.) were added to the cells at the center of the coverslip. Two cuts across the coverslip were made to form a transient tear in the plasma membranes of the cells to permit dye entry into cells. Cells were incubated with 2.5 μl of both of the dyes for 20 min, then fixed in 2.5% paraformaldehyde, washed in PBS and examined by fluorescent microscopy using a Nikon C1 confocal microscopy. For quantitation, the extent of dye transfer was calculated by counting the number of LY-labeled cells from the initial scrape with subtraction of RD-labeled cells, as a cell damage control, in the microscopic field. Four points per slide were photographed. The experiments were repeated six times, and data are means±SEM.

For the compound `COc1cc([N+](=O)[O-])c(N)cc1Oc1cccc(C(F)(F)F)c1` [PQ4, 4-Amino-5-nitro-2-(3-trifluoromethylphenyloxy)anisole], the IC50 (in general, the point on the concentration scale where inhibition reaches its midpoint) in test [1] was 25 µg/mL (≈ 76.2 µM). The “effect on breast cancer cell colony growth” value is “No effect” in test [2] and “Decrease” in test [4]. Besides, the “effect on gap junction intercellular communication” value was “No effect” in test [3] (Table 3, concentration not given); “No effect” in test [5]; “No effect” in [6]; “Increase” in test [7]; “No effect” in [8]; “Decrease” in test [9]. Besides, the “effect on colony growth” value in test [4] (10 μM, 7 days) is given as “inhibitory effect”.
In the case of `OC(c1cc(C(F)(F)F)nc2c(C(F)(F)F)cccc12)C1CCCCN1` (centres unmarked) [mefloquine, reference compound], the “block of lucifer yellow dye transfer through gap junctions” value in test [10] is “blocked dye transfer significantly”; in test [10] (listed as MQ), “hardly any passage of the dye”.
As for `COc1cc([N+](=O)[O-])c2nccc(C)c2c1Oc1cccc(C(F)(F)F)c1` [PQ2, 6-Methoxy-4-methyl-8-nitro-5-(3-trifluoromethylphenyloxy)quinoline], the IC50 in test [1] amounted to 2.5 µg/mL (≈ 6.6 µM). Further, the entries for the “effect on breast cancer cell colony growth” value in [2] and in test [4] were “No effect” and “Increase”, respectively. Moreover, the “effect on gap junction intercellular communication” value in test [3] (Table 3, 6 uM) was “Increase”; in test [5], “No effect”; in [6], “Decrease”; in test [7], “Increase”; in [8], “No effect”; in test [9], “Decrease”. For the same compound, the “increase in colony growth” value in test [4] (10 μM, 7 days, compared to DMSO) came out at 2.6 fold. Moreover, the “effect on gap junction activity” value in [8] (24 hours) is recorded as “no significant effect”.
